Data: US7276603B2, “Benzofuranyl-and benzothienyl-piperazinyl quinolines and methods of their use” (Wyeth, priority 2003, dated 2007)

Legend:
human 5-HT1A receptors = molecular target: T1, human 5-HT1A receptors (Homo sapiens, UniProt P08908); assay: displacement of [3H] 8-OH-DPAT from the 5-HT1A serotonin receptor; assay type: binding; details: CHO cells stably transfected with human 5-HT1A receptors
T1 construct: expressed in transfected cells; host or cells: CHO cells
T1 sequence (P08908 1-422): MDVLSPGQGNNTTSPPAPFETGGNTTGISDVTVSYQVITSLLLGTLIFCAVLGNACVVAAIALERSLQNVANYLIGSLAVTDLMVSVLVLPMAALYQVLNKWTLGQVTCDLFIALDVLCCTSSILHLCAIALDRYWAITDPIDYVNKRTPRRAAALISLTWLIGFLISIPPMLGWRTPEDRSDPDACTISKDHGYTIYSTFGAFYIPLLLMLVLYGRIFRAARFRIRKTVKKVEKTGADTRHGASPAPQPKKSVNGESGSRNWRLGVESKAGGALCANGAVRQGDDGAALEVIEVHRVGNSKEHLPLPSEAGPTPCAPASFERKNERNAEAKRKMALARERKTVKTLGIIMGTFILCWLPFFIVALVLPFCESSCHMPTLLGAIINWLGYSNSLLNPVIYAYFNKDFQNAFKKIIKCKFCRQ

5-HT transporter = 5-HT transporter (Rattus norvegicus, UniProt P31652); assay: Rat Brain 3H-Paroxetine Binding Assay (RB 5HT Transporter); details: rat frontal cortical membranes; 3H-paroxetine 0.1 nM, 60 min, 25° C.
Description: Rat Brain ^3H-Paroxetine Binding Assay (RB 5HT Transporter):
This assay was used to determine a compound's affinity of the 5-HT transporter.
All reactions were terminated by the addition of ice cold Tris buffer followed by rapid filtration using a Tom Tech filtration device to separate bound from free ^3H-paroxetine.

Chain of 5-HT transporter (P31652 whole entry): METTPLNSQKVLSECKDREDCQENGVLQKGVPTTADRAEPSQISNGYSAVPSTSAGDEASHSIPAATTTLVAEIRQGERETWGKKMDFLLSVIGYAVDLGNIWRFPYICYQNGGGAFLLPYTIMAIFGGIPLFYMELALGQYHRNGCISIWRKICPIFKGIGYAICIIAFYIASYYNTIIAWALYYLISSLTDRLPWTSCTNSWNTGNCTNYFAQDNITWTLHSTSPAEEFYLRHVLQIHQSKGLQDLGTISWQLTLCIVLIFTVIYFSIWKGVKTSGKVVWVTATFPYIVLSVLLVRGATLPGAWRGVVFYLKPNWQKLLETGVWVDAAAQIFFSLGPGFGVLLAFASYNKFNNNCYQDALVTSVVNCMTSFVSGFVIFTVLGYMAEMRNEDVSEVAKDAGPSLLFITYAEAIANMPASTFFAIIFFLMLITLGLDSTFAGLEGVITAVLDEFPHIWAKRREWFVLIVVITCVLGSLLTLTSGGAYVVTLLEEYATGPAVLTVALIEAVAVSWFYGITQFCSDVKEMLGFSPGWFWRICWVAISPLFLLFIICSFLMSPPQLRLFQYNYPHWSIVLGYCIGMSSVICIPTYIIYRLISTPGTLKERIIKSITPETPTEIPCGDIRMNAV

| Compound | Ki (human 5-HT1A receptors) [nM] | Ki (5-HT transporter) [nM] |
| --- | --- | --- |
| Fc1cc(N2CCN(CCc3coc4cc(Cl)ccc34)CC2)c2ncccc2c1 [Compound 6, 8-{4-[2-(6-chloro-1-benzofuran-3-yl)ethyl]-1-piperazinyl}-6-fluoro-quinoline] | 16.1 | 471 |
| Clc1cc(N2CCN(CCc3coc4ccccc34)CC2)c2ncccc2c1 [Compound 2, 8-{4-[2-(1-benzofuran-3-yl)ethyl]-1-piperazinyl}-6-chloroquinoline] | 124 | 176 |
| Fc1cc(N2CCN(CCc3coc4ccccc34)CC2)c2ncccc2c1 [Compound 1, 8-{4-[2-(1-benzofuran-3-yl)ethyl]-1-piperazinyl}-6-fluoroquinoline] | – | 6.5 |
| CC(CN1CCN(c2cccc3cccnc23)CC1)c1coc2ccccc12 (stereo not shown) [Compound 27, 8-{4-[2-(1-benzofuran-3-yl)propyl]-1-piperazinyl}quinoline] | 19.3 | 32 |
| COc1ccc2c(CCN3CCN(c4cccc5cccnc45)CC3)coc2c1 [Compound 9, 8-{4-[2-(6-methoxy-1-benzofuran-3-yl)ethyl]-1-piperazinyl}-quinoline] | 0.37 | 33 |
| Fc1cc(N2CCN([C@H]3CC[C@@H](c4coc5ccccc54)CC3)CC2)c2ncccc2c1 [Compound 55, 8-{4-[4-cis(1-benzofuran-3-yl)cyclohexyl]-1-piperazinyl}-6-fluoroquinoline] | 0.11 | 116 |
| COc1ccc2occ([C@H]3CC[C@@H](N4CCN(c5ccc(Cl)c6cccnc56)CC4)CC3)c2c1 [Compound 65, 5-chloro-8-{4-[4-cis(5-methoxy-1-benzofuran-3-yl)cyclohexyl]piperazin-1-yl}quinoline] | 10.1 | 53 |
| COc1ccc2occ(CCN3CCN(c4cc(C)cc5cccnc45)CC3)c2c1 [Compound 23, 8-{4-[2-(5-methoxy-1-benzofuran-3-yl)ethyl]-1-piperazinyl}-6-methyl-quinoline] | 20 | 28.5 |
| COc1ccc2c(CCN3CCN(c4cc(Cl)cc5cccnc45)CC3)coc2c1 [Compound 11, 8-{4-[2-(6-methoxy-1-benzofuran-3-yl)ethyl]-1-piperazinyl}-6-chloro-quinoline] | 0.81 | 37 |
| COc1cc(N2CCN(CCc3coc4ccccc34)CC2)c2ncccc2c1 [Compound 4, 8-{4-[2-(1-benzofuran-3-yl)ethyl]-1-piperazinyl}-6-methoxyquinoline] | 2.48 | 60 |
| COc1cc(N2CCN(CCc3coc4ccc(OC)cc34)CC2)c2ncccc2c1 [Compound 25, 8-{4-[2-(5-methoxy-1-benzofuran-3-yl)ethyl]-1-piperazinyl}-6-methoxy-quinoline] | 8.71 | 47 |
| COc1ccc2occ(CC(C)N3CCN(c4cccc5cccnc45)CC3)c2c1 (stereo not shown) [Compound 38, 8-{4-[2-(5-methoxy-1-benzofuran-3-yl)-1-methylethyl)piperazin-1-yl]quinoline] | 0.14 | – |
| COc1cccc2c(CC(C)N3CCN(c4cc(C)cc5cccnc45)CC3)coc12 (stereo not shown) [Compound 37, 6-methyl-8-{4-[2-(7-methoxy-1-benzofuran-3-yl)-1-methylethyl)piperazin-1-yl]quinoline] | – | 471 |
| Cc1cc(N2CCN(CC(C)c3coc4ccccc34)CC2)c2ncccc2c1 (stereo not shown) [Compound 30, 8-{4-[2-(1-benzofuran-3-yl)propyl]-1-piperazinyl}-6-methyl-quinoline] | 79.1 | 93 |
| COc1cccc2c(CCN3CCN(c4cc(Cl)cc5cccnc45)CC3)coc12 [Compound 20, 8-{4-[2-(7-methoxy-1-benzofuran-3-yl)ethyl]-1-piperazinyl}-6-chloro-quinoline] | 0.14 | 3.79 |
| Clc1cc(N2CCN(CCc3coc4ccc(Cl)cc34)CC2)c2ncccc2c1 [Compound 13, 8-{4-[2-(5-chloro-1-benzofuran-3-yl)ethyl]-1-piperazinyl}-6-chloro-quinoline] | 41.3 | 64 |
| COc1cccc2c(CCN3CCN(c4cccc5cccnc45)CC3)coc12 [Compound 18, 8-{4-[2-(7-methoxy-1-benzofuran-3-yl)ethyl]-1-piperazinyl}-quinoline] | 0.11 | 0.65 |
| COc1ccc2occ(CC(C)N3CCN(c4cc(C)cc5cccnc45)CC3)c2c1 (stereo not shown) [Compound 40, 6-methyl-8-{4-[2-(5-methoxy-1-benzofuran-3-yl)-1-methylethyl)piperazin-1-yl]quinoline] | 1.77 | 130 |
| Cc1cc(N2CCN(CCc3coc4ccc(Cl)cc34)CC2)c2ncccc2c1 [Compound 14, 8-{4-[2-(5-chloro-1-benzofuran-3-yl)ethyl]-1-piperazinyl}-6-methyl-quinoline] | 13.5 | 45 |
| COc1ccc2occ(CC(C)N3CCN(c4cc(Cl)cc5cccnc45)CC3)c2c1 (stereo not shown) [Compound 39, 6-chloro-8-{4-[2-(5-methoxy-1-benzofuran-3-yl)-1-methylethyl)piperazin-1-yl]quinoline] | 0.34 | 5.5 |
| COc1cccc2c(C(C)CN3CCN(c4cccc5cccnc45)CC3)coc12 (stereo not shown) [Compound 31, 8-{4-[2-(7-methoxy-1-benzofuran-3-yl)propyl]-1-piperazinyl}quinoline] | 0.91 | 4.17 |
| COc1cccc2c1occ2[C@H]1CC[C@H](N2CCN(c3ccc(Cl)c4cccnc34)CC2)CC1 [Compound 64, 5-chloro-8-{4-[4-trans(7-methoxy-1-benzofuran-3-yl)cyclohexyl]piperazin-1-yl}quinoline] | 18.7 | 49 |
| Fc1cc(N2CCN(CCc3coc4ccc(F)cc34)CC2)c2ncccc2c1 [Compound 17, 8-{4-[2-(5-fluoro-1-benzofuran-3-yl)ethyl]-1-piperazinyl}-6-fluoro-quinoline] | 1.59 | 16.5 |
| Clc1ccc2occ(CCN3CCN(c4cccc5cccnc45)CC3)c2c1 [Compound 12, 8-{4-[2-(5-chloro-1-benzofuran-3-yl)ethyl]-1-piperazinyl}-quinoline] | 2.92 | 11 |
| COc1ccc2c(CCN3CCN(c4cc(C)cc5cccnc45)CC3)coc2c1 [Compound 10, 8-{4-[2-(6-methoxy-1-benzofuran-3-yl)ethyl]-1-piperazinyl}-6-methyl-quinoline] | 0.94 | 97 |
| Cc1cc(N2CCN(CCc3coc4ccccc34)CC2)c2ncccc2c1 [Compound 3, 8-{4-[2-(1-benzofuran-3-yl)ethyl]-1-piperazinyl}-6-methylquinoline] | 1.93 | 14 |
| Clc1cc(N2CCN(CCc3coc4cc(Cl)ccc34)CC2)c2ncccc2c1 [Compound 7, 8-{4-[2-(6-chloro-1-benzofuran-3-yl)ethyl]-1-piperazinyl}-6-chloro-quinoline] | 15.4 | – |
| Fc1cc(N2CCN([C@H]3CC[C@@H](c4csc5ccc(F)cc54)CC3)CC2)c2ncccc2c1 [Compound 47, 6-fluoro-8-{4-[4-cis(5-fluoro-1-benzothien-3-yl)cyclohexyl]piperazin-1-yl}quinoline] | 1.72 | – |
| COc1cccc2c(CC(C)N3CCN(c4cccc5cccnc45)CC3)coc12 (stereo not shown) [Compound 35, 8-{4-[2-(7-methoxy-1-benzofuran-3-yl)-1-methylethyl)piperazin-1-yl]quinoline] | 1.22 | – |
